The text below walks through data of article PMC7913291, “Synthesis and Anti-Hepatocarcinoma Effect of Amino Acid Derivatives of Pyxinol and Ocotillol” (Molecules, 2021).

For orientation: IC50 means the concentration needed to halve the response being measured.

In one series the test system is HepG2 cells. As to the kind of experiment: Cytotoxic activity on HepG2 cells (CCK-8 assay). It counts as cell-based. The conditions noted are these: Homo sapiens, HepG2; CCK-8, 48 h, mean of three experiments ±SD; read-out: IC50 over HepG2 cells. The protocol:
Human hepatocellular liver carcinoma cell line (HepG2) were obtained from Institute of Biochemistry and Cell Biology, Academy of Science (Shanghai, China) and were authenticated using the STR profiling method. HepG2 cells were cultured in MDEM (Gibco, Waltham, MA, USA) supplemented with 10% fetal bovine serum (FBS) and 1% penicillin-streptomycin bubbled with 5% CO2-enriched air at a temperature of 37 °C (Thermo Scientific, Waltham, MA, USA). The cytotoxic effect of compounds on HepG2 cells was assessed by using CCK-8 method. Briefly, HepG2 cells were cultured in 96-well plates at a density of 5 × 10^3 cells per well for 24 h. […] Three replicates were performed. The relative cell viability was expressed as percentage relative to the untreated cells. The inhibition ratio was calculated. The IC50 values were calculated using Logistic regression from three independent tests.
In general terms: Tetrazolium assays rely on reduction of a dye to a coloured formazan, in cell work by metabolically active cells.
On to `C[C@H](NC(=O)OC(C)(C)C)C(=O)O[C@H]1CC[C@@]2(C)C(CC[C@]3(C)C2C[C@@H](O)C2C([C@]4(C)CC[C@H](C(C)(C)O)O4)CC[C@]23C)C1(C)C` (stereo partly drawn) [1a, (20S, 24R)-Epoxy-3β-O-(Boc-L-alanyl)-dammarane-12β, 25-diol], for which the IC50 came out at 26.3 ± 0.72 µM. For the molecule `CSCC[C@H](NC(=O)OC(C)(C)C)C(=O)O[C@H]1CC[C@@]2(C)C(CC[C@]3(C)C2C[C@@H](O)C2C([C@]4(C)CC[C@H](C(C)(C)O)O4)CC[C@]23C)C1(C)C` (stereo partly drawn) [1b, (20S, 24R)-Epoxy-3β-O-(Boc-L-methinyl)-dammarane-12β, 25-diol], the IC50 was 73.5 ± 2.6 µM.

Take `CC(C)(C)OC(=O)NCC(=O)O[C@H]1CC[C@@]2(C)C(CC[C@]3(C)C2C[C@@H](O)C2C([C@]4(C)CC[C@H](C(C)(C)O)O4)CC[C@]23C)C1(C)C` (stereo partly drawn) [1c, (20S, 24R)-Epoxy-3β-O-(Boc-L-glycyl)-dammarane-12β, 25-diol]: the IC50 was found to be 26.6 ± 1.52 µM. Same read-out and setting: next, `CC(C)C[C@H](NC(=O)OC(C)(C)C)C(=O)O[C@H]1CC[C@@]2(C)C(CC[C@]3(C)C2C[C@@H](O)C2C([C@]4(C)CC[C@H](C(C)(C)O)O4)CC[C@]23C)C1(C)C` (stereo partly drawn) [1d, (20S, 24R)-Epoxy-3β-O-(Boc-L-leucyl)-dammarane-12β,25-diol]: 73.1 ± 1.67 µM; `CC(C)(C)OC(=O)N1CCCC1C(=O)O[C@H]1CC[C@@]2(C)C(CC[C@]3(C)C2C[C@@H](O)C2C([C@]4(C)CC[C@H](C(C)(C)O)O4)CC[C@]23C)C1(C)C` (stereo partly drawn) [1e, (20S, 24R)-Epoxy-3β-O-(Boc-L-prolyl)-dammarane-12β, 25-diol]: 30.5 ± 2.98 µM; `CC(C)[C@H](NC(=O)OC(C)(C)C)C(=O)O[C@H]1CC[C@@]2(C)C(CC[C@]3(C)C2C[C@@H](O)C2C([C@]4(C)CC[C@H](C(C)(C)O)O4)CC[C@]23C)C1(C)C` (stereo partly drawn) [1f, (20S, 24R)-Epoxy-3β-O-(Boc-L-valyl)-dammarane-12β, 25-diol]: 62.1 ± 3.78 µM. On the same count and under the same terms, the same measure for `C[C@H](N)C(=O)O[C@H]1CC[C@@]2(C)C(CC[C@]3(C)C2C[C@@H](O)C2C([C@]4(C)CC[C@H](C(C)(C)O)O4)CC[C@]23C)C1(C)C` (stereo partly drawn) [2a, (20S, 24R)-Epoxy-3β-O-(L-alanyl)-dammarane-12β, 25-diol]: 16.5 ± 1.66 µM; for `CSCC[C@H](N)C(=O)O[C@H]1CC[C@@]2(C)C(CC[C@]3(C)C2C[C@@H](O)C2C([C@]4(C)CC[C@H](C(C)(C)O)O4)CC[C@]23C)C1(C)C` (stereo partly drawn) [2b, (20S, 24R)-Epoxy-3β-O-(L-methinyl)-dammarane-12β, 25-diol]: 20.3 ± 2.04 µM.

Regarding `CC(C)(O)[C@H]1CC[C@@](C)(C2CC[C@]3(C)C2[C@H](O)CC2[C@@]4(C)CC[C@H](OC(=O)CN)C(C)(C)C4CC[C@]23C)O1` (stereo partly drawn) [2c, (20S, 24R)-Epoxy-3β-O-(L-glycyl)-dammarane-12β, 25-diol], the IC50 is 16.3 ± 0.31 µM.

As to `CC(C)C[C@H](N)C(=O)O[C@H]1CC[C@@]2(C)C(CC[C@]3(C)C2C[C@@H](O)C2C([C@]4(C)CC[C@H](C(C)(C)O)O4)CC[C@]23C)C1(C)C` (stereo partly drawn) [2d, (20S, 24R)-Epoxy-3β-O-(L-leucyl)-dammarane-12β, 25-diol], the IC50 is 20.1 ± 3.49 µM. On to `CC(C)[C@H](N)C(=O)O[C@H]1CC[C@@]2(C)C(CC[C@]3(C)C2C[C@@H](O)C2C([C@]4(C)CC[C@H](C(C)(C)O)O4)CC[C@]23C)C1(C)C` (stereo partly drawn) [2f, (20S, 24R)-Epoxy-3β-O-(L-valyl)-dammarane-12β, 25-diol], for which the IC50 was 19.7 ± 1.96 µM.

As for `C[C@H](NC(=O)OC(C)(C)C)C(=O)O[C@H]1CC[C@@]2(C)C([C@@H](O)C[C@]3(C)C2C[C@@H](O)C2C([C@]4(C)CC[C@H](C(C)(C)O)O4)CC[C@]23C)C1(C)C` (stereo partly drawn) [3a, (20S, 24R)-Epoxy-3β-O-(Boc-L-alanyl)-dammarane-6α,12β,25-triol], the IC50 turned out to be 61 ± 1.57 µM. Still for that read-out and setting: the same measure for `CSCC[C@H](NC(=O)OC(C)(C)C)C(=O)O[C@H]1CC[C@@]2(C)C([C@@H](O)C[C@]3(C)C2C[C@@H](O)C2C([C@]4(C)CC[C@H](C(C)(C)O)O4)CC[C@]23C)C1(C)C` (stereo partly drawn) [3b, (20S, 24R)-Epoxy-3β-O-(Boc-L-methinyl)-dammarane-6α,12β,25-triol]: 88.6 ± 5.03 µM.

For the molecule `CC(C)(C)OC(=O)NCC(=O)O[C@H]1CC[C@@]2(C)C([C@@H](O)C[C@]3(C)C2C[C@@H](O)C2C([C@]4(C)CC[C@H](C(C)(C)O)O4)CC[C@]23C)C1(C)C` (stereo partly drawn) [3c, (20S, 24R)-Epoxy-3β-O-(Boc-L-glycyl)-dammarane-6α,12β,25-triol], the IC50 stood at 32.6 ± 1.55 µM.

Regarding `CC(C)C[C@H](NC(=O)OC(C)(C)C)C(=O)O[C@H]1CC[C@@]2(C)C([C@@H](O)C[C@]3(C)C2C[C@@H](O)C2C([C@]4(C)CC[C@H](C(C)(C)O)O4)CC[C@]23C)C1(C)C` (stereo partly drawn) [3d, (20S, 24R)-Epoxy-3β-O-(Boc-L-leucyl)-dammarane-6α,12β,25-triol], the IC50 is 74.9 ± 2.87 µM. For the molecule `CC(C)(C)OC(=O)N1CCCC1C(=O)O[C@H]1CC[C@@]2(C)C([C@@H](O)C[C@]3(C)C2C[C@@H](O)C2C([C@]4(C)CC[C@H](C(C)(C)O)O4)CC[C@]23C)C1(C)C` (stereo partly drawn) [3e, (20S, 24R)-Epoxy-3β-O-(Boc-L-prolyl)-dammarane-6α,12β,25-triol], the IC50 was 41.8 ± 2.58 µM.

Consider `CC(C)[C@H](NC(=O)OC(C)(C)C)C(=O)O[C@H]1CC[C@@]2(C)C([C@@H](O)C[C@]3(C)C2C[C@@H](O)C2C([C@]4(C)CC[C@H](C(C)(C)O)O4)CC[C@]23C)C1(C)C` (stereo partly drawn) [3f, (20S, 24R)-Epoxy-3β-O-(Boc-L-valyl)-dammarane-6α,12β,25-triol], for which the IC50 came to 80.1 ± 2.03 µM. Take `C[C@H](N)C(=O)O[C@H]1CC[C@@]2(C)C([C@@H](O)C[C@]3(C)C2C[C@@H](O)C2C([C@]4(C)CC[C@H](C(C)(C)O)O4)CC[C@]23C)C1(C)C` (stereo partly drawn) [4a, (20S, 24R)-Epoxy-3β-O-(L-alanyl)-dammarane-6α,12β,25-triol]: the IC50 is 34 ± 0.9 µM.

Take `CSCC[C@H](N)C(=O)O[C@H]1CC[C@@]2(C)C([C@@H](O)C[C@]3(C)C2C[C@@H](O)C2C([C@]4(C)CC[C@H](C(C)(C)O)O4)CC[C@]23C)C1(C)C` (stereo partly drawn) [4b, (20S, 24R)-Epoxy-3β-O-(L-methinyl)-dammarane-6α,12β,25-triol]: the IC50 came out at 50.6 ± 0.62 µM.

For `CC(C)(O)[C@H]1CC[C@@](C)(C2CC[C@]3(C)C2[C@H](O)CC2[C@@]4(C)CC[C@H](OC(=O)CN)C(C)(C)C4[C@@H](O)C[C@]23C)O1` (stereo partly drawn) [4c, (20S, 24R)-Epoxy-3β-O-(-L-glycyl)-dammarane-6α,12β,25-triol], the IC50 came out at 20.6 ± 2.47 µM.

In the case of `CC(C)C[C@H](N)C(=O)O[C@H]1CC[C@@]2(C)C([C@@H](O)C[C@]3(C)C2C[C@@H](O)C2C([C@]4(C)CC[C@H](C(C)(C)O)O4)CC[C@]23C)C1(C)C` (stereo partly drawn) [4d, (20S, 24R)-Epoxy-3β-O-(L-leucyl)-dammarane-6α,12β,25-triol], the IC50 worked out at 35.4 ± 1.59 µM.

Consider `CC(C)(O)[C@H]1CC[C@@](C)(C2CC[C@]3(C)C2[C@H](O)CC2[C@@]4(C)CC[C@H](OC(=O)C5CCCN5)C(C)(C)C4[C@@H](O)C[C@]23C)O1` (stereo partly drawn) [4e, (20S, 24R)-Epoxy-3β-O-(L-prolyl)-dammarane-6α,12β,25-triol], for which the IC50 was found to be 24.6 ± 0.35 µM.

For the molecule `CC(C)[C@H](N)C(=O)O[C@H]1CC[C@@]2(C)C([C@@H](O)C[C@]3(C)C2C[C@@H](O)C2C([C@]4(C)CC[C@H](C(C)(C)O)O4)CC[C@]23C)C1(C)C` (stereo partly drawn) [4f, (20S, 24R)-Epoxy-3β-O-(L-valyl)-dammarane-6α,12β,25-triol], the IC50 worked out at 44.7 ± 3.07 µM.

As for `CC(C)(O)C1CCC(C)(C2CCC3(C)C2C(O)CC2C4(C)CCC(O)C(C)(C)C4CCC23C)O1` (centres unmarked) [Pyxinol], the IC50 turned out to be 74.5 ± 1.09 µM.

Tested on in the next series: not given
Experiment: not given
Conditions: rats; cited from earlier work.
For `CC(C)(O)C1CCC(C)(C2CCC3(C)C2C(O)CC2C4(C)CCC(O)C(C)(C)C4CCC23C)O1` (centres unmarked) [Pyxinol], the oral bioavailability result was “low” and the t1/2 entry is on record as “short”.
